The assay has as its system cultured murine melanocytes (melan-a). The assay can be described thus: Melanin assay in cultured murine melanocytes (melan-a). The class given is cell-based. Particulars: for inhibition at 1 µM / inhibition at 5 µM / IC50: Mus musculus; for inhibition at 1 µM / inhibition at 5 µM: 72 h; for inhibition at 1 µM: read-out: % Inh. @ 1 μM; for inhibition at 5 µM: read-out: % Inh. @ 5 μM. The method, then:
The Spectrum Collection library consisting of 2000 drug compounds or natural products was screened to identify novel pigmentation inhibitors or stimulators in cultured murine melanocytes (melan-a). Compounds were dissolved in dimethylsulfoxide (DMSO) to a final concentration of 10 mM. Screening was performed with cultured melanocytes in 24-well plates followed by melanin assay (see below). A minimum change of 50% in melanin formation was established as significant for a pigmentation inhibitor or stimulator. DMSO was used as a negative control and the widely used depigmenting agent, hydroquinone, was used as a positive control on every plate. Primary screening was performed at a final concentration of 1 μM and potential candidates from the primary screening were reconfirmed in duplicate at final concentrations of 1 and 5 μM.
Melan-a cells were plated at 5×10^4 cells per well in 1 ml of culture media in 24-well plates the day before adding the library compounds. All compounds were added at the indicated final concentrations. Cells were harvested after 72 hours of incubation, and melanin assay was performed.
The hits identified herein were purchased from Sigma (St Louis, Mo.). […] These compounds were dissolved in dimethylsulfoxide (DMSO) to a final concentration of 10 mM, and were tested for their effect on melanin synthesis at the indicated final concentrations.
For the primary and secondary screening, cells were harvested and dissolved in 200 μL of 2N NaOH in 20% DMSO at 70° C. A 180-μl aliquot of the resulting solution was measured for absorbance at 490 nm.
The lysates were centrifuged at 14,000 rpm for 10 minutes at 4° C. BCA protein assay kit (Pierce) was used to measure the protein concentrations of the supernatants, and bovine serum albumin was used as a standard. The remaining pellets were incubated with 100 μl ethanol-ether (1:1) for 10 minutes at room temperature. After removing the ethanol-ether, the pellets were dissolved in 200 μL of 2N NaOH in 20% DMSO at 70° C. A 180-μL aliquot of the resulting solution was measured for absorbance at 490 nm. The melanin contents were normalized to the total amount of protein.

Setting [1] is: Melan-a, melanin formation, melan-a cells, 1 μM compound, 72 hours incubation.
[2] abbreviates: Melan-a, melanin formation, melan-a cells, 5 μM compound, 72 hours incubation.
Where [3] appears, read: inhibition of melanin synthesis, melan-a cells, read-out: IC50.
Where [4] appears, read: melanin formation, melan-a cells, 1 μM compound, 72 hours incubation.
Where [5] appears, read: melanin formation, melan-a cells, 5 μM compound, 72 hours incubation.

We go through 22 compounds from patent US20090298868A1, “QUINOLINE COMPOUNDS AS MELANOGENESIS MODIFIERS AND USES THEREOF” (priority 2007, published 2009).

Where a name gives a salt, the structure may show the parent alone. Read-outs that look alike come from different tables or passages of the source.

As to `C=C[C@H]1C[N@@]2CCC1C[C@H]2[C@H](O)c1ccnc2ccc(OC)cc12` (single isomer, unassigned; (+)) [ID 14, (+)-3-Hydroxybutyric acid, quinine salt], the “% Inh. @ 1 μM” value (melanin formation, melan-a cells, 1 μM compound, 72 hours incubation, 1 µM) worked out at 32.6%. Moreover, for the setting “melanin formation, melan-a cells, 5 μM compound, 72 hours incubation, 5 µM”, the “% Inh. @ 5 μM” value was 61.3%.

Consider `CCN(CC)Cc1ccc(Nc2ccnc3cc(Cl)ccc23)cc1O` [ID 1, Amodiaquine Dihydrochloride], for which, under setting [1], the inhibition at 1 µM is 21%. For the same compound, the inhibition at 5 µM under setting [2] is 79%. The IC50 – broadly, the concentration needed to halve the response being measured – under setting [3] amounted to 2.6 ± 0.15 µM.

`CCN(CC)CCCC(C)Nc1ccnc2cc(Cl)ccc12` (centres unmarked) [ID 2, Chloroquine Diphosphate]: where the note is “Melan-a”, half-maximal inhibition (IC50) was put at 0.7 ± 0.18 µM, the inhibition at 1 µM is 62% and the inhibition at 5 µM was found to be 70%.

Consider `COc1cc(NC(C)CCCN)c2ncccc2c1` (centres unmarked) [ID 3, Primaquine Diphosphate], for which, for the setting “Melan-a”, the IC50 turned out to be 6.8 ± 0.37 µM, the inhibition at 1 µM is 30% and the inhibition at 5 µM came to 47%.

In the case of `CCCCOc1cc(C(=O)NCCN(CC)CC)c2ccccc2n1` [ID 4, Dibucaine Hydrochloride], the concentration for half-maximal inhibition (IC50) under setting [3] turned out to be 10.2 ± 0.28 µM.

Consider `C=C[C@H]1C[N@]2CC[C@H]1C[C@@H]2[C@@H](OC(=O)OCC)c1ccnc2ccc(OC)cc12` [ID 5, Quinine Ethyl Carbonate], for which, where the note is “Melan-a”, inhibition was half-maximal at 5.1 ± 0.12 µM (IC50), the inhibition at 1 µM came to 15% and the inhibition at 5 µM is 49%.

`C=C[C@H]1C[N@]2CC[C@H]1C[C@@H]2[C@@H](O)c1ccnc2ccc(OC)cc12` [ID 6, Quinidine Gluconate]: where the note is “Melan-a”, the IC50 amounted to 2.7 ± 0.14 µM, the inhibition at 1 µM worked out at 41% and the inhibition at 5 µM came to 58%.

As to `C=C[C@H]1C[N@]2CC[C@H]1C[C@@H]2C(O)c1ccnc2ccc(OC)cc12` (some centres unmarked) [ID 7, Quinine Sulfate], for the setting “Melan-a”, the IC50 stood at 1.5 ± 0.19 µM, the inhibition at 1 µM was found to be 31% and the inhibition at 5 µM came to 58%.

`CC[C@H]1CN2CCC1C[C@@H]2[C@@H](O)c1ccnc2ccc(OC)cc12` (some centres unmarked) [ID 8, Hydroquinidine]: the inhibition at 1 µM under setting [1] came out at 30.9%. Besides, under setting [2], the inhibition at 5 µM worked out at 52.3%. Further, the “IC50 (μM)” value (inhibition of melanin synthesis, melan-a cells) was “active”.

For `C=C[C@H]1C[N@]2CC[C@H]1C[C@H]2[C@H](O)c1ccnc2ccccc12` [ID 9, Cinchonidine], the inhibition at 1 µM under setting [1] was determined as 25%. Also, the inhibition at 5 µM under setting [2] is 35.7%. Further, the IC50 under setting [3] is 10.9 ± 0.22 µM.

In the case of `C=C[C@H]1C[N@]2CC[C@H]1C[C@@H]2[C@H](O)c1ccnc2ccccc12` [ID 10, Cinchonine], the inhibition at 1 µM under setting [1] was 18%. For the same compound, under setting [2], the inhibition at 5 µM is 30%. For the same compound, the IC50 under setting [3] was over 20 µM.

Turning to `OC(c1cc(C(F)(F)F)nc2c(C(F)(F)F)cccc12)C1CCCCN1` (centres unmarked) [ID 11, Mefloquine], the inhibition at 1 µM under setting [1] was 10%. In addition, under setting [2], the inhibition at 5 µM worked out at 75%. For the same compound, under setting [3], the IC50 stood at 2 ± 0.15 µM.

As for `C=C[C@H]1CN2CCC1CC2C(O)c1ccnc2ccc(OC)cc12` (some centres unmarked) [ID 12, Quinine], under setting [1], the inhibition at 1 µM is 42.6%. Under setting [2], the inhibition at 5 µM came out at 70.9%.

`C=C[C@H]1C[N@@]2CCC1C[C@H]2[C@H](O)c1ccnc2ccc(OC)cc12` [ID 13, Quinine Salicylate]: the inhibition at 1 µM under setting [1] turned out to be 33%. Moreover, the inhibition at 5 µM under setting [2] was determined as 60%.

On to `C=CC1CN2CCC1CC2[C@H](O)c1ccnc2ccc(OC)cc12` (some centres unmarked) [ID 16, Quinine hydrobromide], for which the inhibition at 1 µM under setting [1] amounted to 30.1%. For the same compound, under setting [2], the inhibition at 5 µM worked out at 63.9%.

For the compound `C=C[C@H]1CN2CCC1CC2[C@@H](O)c1ccnc2ccc(OC)cc12` (some centres unmarked) [ID 17, Quinine hydrochloride dihydrate], the inhibition at 1 µM under setting [1] amounted to 27.5%. Moreover, the inhibition at 5 µM under setting [2] is 61.5%.

Take `CC[C@H]1CN2CCC1CC2C(O)c1ccnc2ccc(OC)cc12` (some centres unmarked) [ID 18, Hydroquinine]: the inhibition at 1 µM under setting [1] came to 37.3%. Also, the inhibition at 5 µM under setting [2] was determined as 71.7%.

As to `CC[C@H]1C[N@@]2CCC1C[C@H]2[C@H](O)c1ccnc2ccc(OC)cc12` [ID 19, Hydroquinine hydrobromide hydrate], under setting [1], the inhibition at 1 µM was 26.8%. Besides, the inhibition at 5 µM under setting [2] was 67.4%.

With `CC[C@H]1CN2CCC1CC2[C@@H](O)c1ccnc2ccccc12` (some centres unmarked) [ID 20, Hydrocinchonine], for the setting “Melan-a”, the inhibition at 1 µM was found to be 24% and the inhibition at 5 µM was 37.3%.

For `C=C[C@H]1C[N+]2(Cc3ccccc3)CC[C@H]1C[C@H]2[C@H](O)c1ccnc2ccccc12.[Cl-]` [ID 21, N- Benzylcinchonidinium chloride], the “% Inh. @ 1 μM” value under setting [4] was determined as 9.6%. The “% Inh. @ 5 μM” value under setting [5] is listed as 16.4%.

For `CC[C@H]1CN2CCC1CC2[C@@H](OC(=O)c1ccc(Cl)cc1)c1ccnc2ccc(OC)cc12` (some centres unmarked) [ID 22, Hydroquinidine 4-chlorobenzoate], the inhibition at 1 µM under setting [1] amounted to 10%. Besides, under setting [2], the inhibition at 5 µM was determined as 25.5%.

As to “(−)-3-Hydroxybutyric acid, quinine salt [ID 15]”, the “% Inh. @ 1 μM” value under setting [4] came out at 34.4%. Moreover, the “% Inh. @ 5 μM” value under setting [5] amounted to 63.9%.
